# Test results taken from patent US5589506A, “Stilbene derivative and stilbene analog derivative, and use thereof” (Morinaga Milk Industry Co., Ltd., priority 1993, dated 1996).
# pIC50: −log10 of the molar value. Entries after “also recorded” stand apart in the source; their conditions may differ. Like-named read-outs stand apart in the source and are kept apart here.
# What was measured:
# [1] = Deacylation by esterases present in the enzyme solution prepared from rat platelets; format: in vitro ADME; details: platelet enzyme solution, 37° C., read-out: conversion (%) from Formula 34b or Formula 35b to Formula 32b; for metabolised at 0.5 h, 10 µM: Reaction time 30 min.; for metabolised at 1 h, 10 µM: Reaction time 60 min.
# Protocol: The test was performed to examine whether or not deacylated compounds would be formed due to esterases present in the enzyme solution when the compounds in the third embodiment according to the present invention were treated with the same enzyme solution as in Test Example 4.
# The enzyme solution was prepared according to the same procedure as described in Test Example 4.
# (§1) One ml of the above mentioned enzyme solution was diluted with 11 ml of a resuspension buffer. To an aliquot (300 μl) of this enzyme solution was added 3 μl of a 1.0×10^-3 M test compound solution in dimethyl sulfoxide. The mixture was incubated at 37° C. for an indicated time, then the reaction was ceased by the addition of 1 ml of acetonitrile. Twenty μl of the above mixture was subjected to reverse phase high-performance liquid chromatography equipped with a C-18 column to quantify the amount of deacylated products. As a control, a test using 300 μl of the resuspension buffer solution mentioned above instead of the enzyme solution was also performed.
# Conditions of reverse phase high-performance liquid chromatography:
# Column: Superspher RP-18(e) (purchased from Merck), 4.0 mm in diameter, 125 mm in length
# Flow velocity: 1.0 ml/minute
# Eluent: Acetonitrile containing 50 mM NaClO4 and 50 mM orthophosphate-water (55: 45)
# Column temperature: 30° C.
# Calibration: Absorbance of 280 nm
# [2] = Deacylation control test in resuspension buffer instead of enzyme solution; format: in vitro ADME; details: resuspension buffer instead of the enzyme solution
# Protocol: as §1
# [3] = target: T1, 5-lipoxygenase (Rattus norvegicus, UniProt P12527); experiment: 5-lipoxygenase inhibition assay (rat basophilic leukemia cell RBL-1 enzyme solution); format: biochemical
# T1 construct: Cultured cells were collected and washed twice; host or cells: RBL-1 rat basophilic leukemia cells (sonicate, 10,000 x g supernatant)
# T1 sequence (P12527 1-673): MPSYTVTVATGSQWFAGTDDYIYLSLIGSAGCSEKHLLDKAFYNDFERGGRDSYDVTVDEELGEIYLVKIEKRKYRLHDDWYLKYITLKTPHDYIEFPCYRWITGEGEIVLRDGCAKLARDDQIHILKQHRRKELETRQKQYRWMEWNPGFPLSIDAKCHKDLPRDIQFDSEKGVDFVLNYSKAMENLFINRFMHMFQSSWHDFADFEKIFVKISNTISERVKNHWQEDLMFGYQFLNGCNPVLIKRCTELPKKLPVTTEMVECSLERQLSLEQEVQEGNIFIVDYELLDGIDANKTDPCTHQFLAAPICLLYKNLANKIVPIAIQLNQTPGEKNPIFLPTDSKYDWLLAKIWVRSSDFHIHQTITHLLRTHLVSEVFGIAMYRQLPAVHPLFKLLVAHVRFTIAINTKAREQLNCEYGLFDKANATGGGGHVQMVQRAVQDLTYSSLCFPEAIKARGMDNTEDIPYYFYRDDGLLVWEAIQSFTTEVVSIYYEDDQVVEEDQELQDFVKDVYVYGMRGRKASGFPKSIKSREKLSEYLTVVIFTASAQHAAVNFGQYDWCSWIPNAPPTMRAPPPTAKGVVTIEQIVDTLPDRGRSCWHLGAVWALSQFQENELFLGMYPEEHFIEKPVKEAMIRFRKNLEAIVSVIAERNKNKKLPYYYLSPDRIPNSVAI
# Protocol: The test was carried out to examine the selectivity toward 12-lipoxgenase of the compounds of the first embodiment in the present invention.
# i) Preparation of 5-lipoxgenase enzyme solution
# Rat basophilic leukemia cells (RBL-1, ATCC CRL1378) were cultured in Dulbecco modified Eagle's medium containing 10% new-born bovine serum.
# Cultured cells were collected and washed twice with a 50 mM Tris-buffered saline (containing 154 mM sodium chloride, pH: 7.4, hereinafter described as TBS). The cell suspension (4×10^7 cells/ml) was then sonicated and centrifuged at 10,000×g for 10 minutes.
# The resultant supernatant was used to prepare an assay solution.
# i) Procedure for 5-lipoxgenase inhibition assay
# To an aliquot (15 μl) of the enzyme solution (40 mU/ml equivalent) was added 185 μl of TBS, 50 μl of a 2 mM adenosine triphosphate in TBS, 50 μl of a 12 mM calcium chloride in TBS, 1 μl of a 3 mM indomethacin in ethanol solution, 1 μl of an aqueous 300 mM reduced glutathione solution, and 3 μl of varied concentrated test compounds solution in ethanol. The resultant mixture was incubated at 37° C. for 5 minutes. Subsequently, 3 μl of a 2.5 mM arachidonic acid solution in ethanol was added to incubate the mixture for 2 minutes at 37° C. The reaction was ceased by the addition of 600 μl of methanol After being centrifuged at 10,000×g for 5 minutes, 5-hydroxyeicosatetraenoic acid recovered in the supernatant was separated with a reverse phase high-performance liquid chromatography equipped with a C-18 column and measured the absorption of diene at 234 nm to quantify the activity of the enzyme. […]
# The enzyme activities of the compounds of the present invention prepared according to the same procedure as in Examples 54-58 to be described later and baicalein as sample substances at varied concentrations were measured according to the above-mentioned method, and mole concentrations showing 50% 12-lipoxgenase and 5-lipoxgenase inhibition ratios (hereinafter may be described as IC50 values) were obtained from the measured values of the sample substances.
# [4] = target: T2, 12-lipoxygenase (Rattus norvegicus, UniProt F1LQ70); experiment: 12-lipoxygenase inhibition assay (rat platelet enzyme solution); format: biochemical, Sprague Dawley male rat; details: for 12-Lipoxygenase inhibition ratio (%): 10^-8 (mole concentration), 0.01 µM
# T2 construct: The pelleted platelets were rinsed twice with a washing buffer; from tissue; host or cells: platelets of Sprague Dawley male rat (sonicate, 100,000 x g supernatant)
# T2 sequence (F1LQ70 1-663): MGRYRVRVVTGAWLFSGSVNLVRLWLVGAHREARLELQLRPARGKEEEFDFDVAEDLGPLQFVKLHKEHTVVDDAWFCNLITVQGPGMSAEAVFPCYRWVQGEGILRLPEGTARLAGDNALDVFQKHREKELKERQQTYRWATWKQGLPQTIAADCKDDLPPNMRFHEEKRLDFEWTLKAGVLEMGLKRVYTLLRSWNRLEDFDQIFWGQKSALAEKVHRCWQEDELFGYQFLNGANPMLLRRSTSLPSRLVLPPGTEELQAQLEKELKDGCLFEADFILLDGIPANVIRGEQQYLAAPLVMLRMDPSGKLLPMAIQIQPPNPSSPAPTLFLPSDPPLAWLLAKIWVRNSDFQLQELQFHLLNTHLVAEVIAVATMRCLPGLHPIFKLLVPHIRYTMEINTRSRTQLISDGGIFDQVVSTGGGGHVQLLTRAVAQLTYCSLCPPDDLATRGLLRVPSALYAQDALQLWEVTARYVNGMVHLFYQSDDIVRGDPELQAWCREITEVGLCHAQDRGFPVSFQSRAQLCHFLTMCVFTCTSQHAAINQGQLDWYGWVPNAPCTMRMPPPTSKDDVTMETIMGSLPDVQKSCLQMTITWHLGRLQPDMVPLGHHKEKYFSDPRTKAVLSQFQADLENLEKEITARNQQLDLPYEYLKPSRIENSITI
# Protocol: The test was performed to examine inhibitory effect of various compounds on the 12-lipoxyganase activity.
# 1) Preparation of Enzyme Solution
# A Sprague Dawley male rat was anesthetized with ether and bled from abdominal aorta using a syringe filled with about one-tenth volume of 3.8% sodium citrate. Blood was centrifuged at 180×g for 15 minutes at room temperature to pellet sanguineous platelet blood plasma. The resultant supernatant was again centrifuged at 1800×g for 10 minutes at 4° C. The pelleted platelets were rinsed twice with a washing buffer (50 mM Tris-hydrochloric acid buffer containing 154 mM sodium chloride and 2 mM EDTA, pH: 7.4). The platelets were then suspended in one-twentieth volume of a resuspension buffer (50 mM Tris-hydrochloric acid buffer containing 154 mM sodium chloride and 5.5 mM glucose, pH: 7.4). The platelets were then sonicated at 4° C. and centrifuged at 100,000×g for 30 minutes to obtain a supernatant as a 12-lipoxgenaseenzyme solution.
# 2) Procedure for 12-lipoxgenase inhibition assay
# The enzyme solution described above was diluted with the resuspension buffer above mentioned to prepare an assay solution so as to include about 2 mU/ml of 12-lipoxygenase. […] The resultant mixture was incubated at 37° C. for 5 minutes. Subsequently, 3 μl of a 2.5 mM arachidonic acid solution in ethanol was added to incubate with for another 5 minutes at 37° C., then the reaction was ceased by the addition of 600 μl of methanol. After being centrifuged at 10,000×g for 5 minutes, 12-hydroxyeicosatetraenoic acid recovered in the supernatant was separated with a reverse phase high-performance liquid chromatography equipped with a […] the activity of 12 lipoxygenase.
# The enzyme solution was prepared according to the same manner as in Test Example 1.
# It was prepared according to the same procedure as in Test Example 1.
# Measurement was performed according to the same procedure as in Test Example 1.
# The measurement was performed according to the same procedure as in Test Example 1.
# [5] = tested on: 12-lipoxygenase; details: background; cited from earlier work
# [6] = Table 3, read-out: IC50 values of 5-lipoxygenase (mole)
# [7] = Table 3, read-out: IC50 values of 12-lipoxygenase (mole)
# [8] = Table 12, deacylated compounds, read-out: 12-Lipoxygenase inhibitory effect of deacylated compounds (IC50 values)
# [9] = Table 23, read-out: 5-Lipoxygenase inhibitory effect IC50
# [10] = Table 23, read-out: 12-Lipoxygenase inhibitory effect IC50
smiles,measurement,setting,value
CCC(=O)Oc1ccc(C=C(C#N)c2ccc(Cl)cc2)cc1OC(=O)CC [Formula 35b],"metabolised at 0.5 h, 10 µM",[1],56.5%
same,"metabolised at 1 h, 10 µM",[1],64.6%
same,formation of deacylated compound (Formula 32b),[2],no deacylated compound (Formula 32b) was formed
CC(=O)Oc1ccc(C=C(C#N)c2ccc(Cl)cc2)cc1OC(C)=O [Formula 34b],"metabolised at 0.5 h, 10 µM",[1],70.9%
same,"metabolised at 1 h, 10 µM",[1],82.8%
same,formation of deacylated compound (Formula 32b),[2],no deacylated compound (Formula 32b) was formed
"N#CC(=Cc1ccc(Br)cc1)c1ccc(O)c(O)c1 [Ex. 23, α-cyano-4'-bromo-3,4-dihydroxystilbene]",pIC50,[3]; [6],7.15
same,pIC50,[4]; [7],8.66
same,pIC50,[4]; [8],8.44
N#CC(=Cc1ccc(O)c(O)c1)c1ccc(Br)s1 [Ex. 14],pIC50,[3]; [6],7.59
same,pIC50,[4]; [7],8.44
CCc1ccc(C(C#N)=Cc2ccc(O)c(O)c2)cc1 [Ex. 11],pIC50,[3]; [6],7.34
same,pIC50,[4]; [7],8.24
N#CC(=Cc1ccc(O)c(O)c1)c1ccc(C#N)cc1 [Ex. 16],pIC50,[3]; [6],7.00
same,pIC50,[4]; [7],7.55
N#CC(=Cc1ccc(O)c(O)c1)c1ccc2ccccc2c1 [Formula 23c],pIC50,[3]; [9],7.52
same,pIC50,[4]; [10],8.00
"CCc1ccc(C=C(C#N)c2ccc(O)c(O)c2)cc1 [Ex. 26, α-cyano-4'-ethyl-3,4-dihydroxystilbene]",pIC50,[3]; [6],7.49
same,pIC50,[4]; [7],8.38
Cc1ccc(C(C#N)=Cc2ccc(O)c(O)c2)cc1 [Ex. 6],pIC50,[3]; [6],7.32
same,pIC50,[4]; [7],8.35
"N#CC(=Cc1ccccc1)c1ccc(O)c(O)c1 [Ex. 20, α-cyano-3,4-dihydroxystilbene]",pIC50,[3]; [6],7.02
same,pIC50,[4]; [7],7.77
N#CC(=Cc1cc2ccccc2o1)c1ccc(O)c(O)c1 [Formula 26c],pIC50,[3]; [9],7.47
same,pIC50,[4]; [10],8.49
"N#CC(=Cc1ccc(O)c(O)c1)c1ccc(I)cc1 [Ex. 5, α-cyano-4-iodo-3',4'-dihydroxystilbene]",pIC50,[3]; [6],7.70
same,pIC50,[4]; [7],8.27
same,pIC50,[4]; [8],8.27
N#CC(=Cc1ccc(O)c(O)c1)c1ccc(Br)cc1 [Ex. 4],pIC50,[3]; [6],7.82
same,pIC50,[4]; [7],8.44
"O=c1cc(-c2ccccc2)oc2cc(O)c(O)c(O)c12 [Baicalein, baicalein]","12-lipoxygenase inhibitory effect (literature, in words)",[5],having an inhibitory effect to 12-lipoxygenase; also recorded: relatively high 12-lipoxgenaseinhibitory activities and a relatively high selectivity
N#CC(=Cc1ccc2ccccc2c1)c1ccc(O)c(O)c1 [Formula 24c],pIC50,[3]; [9],7.55
same,pIC50,[4]; [10],8.25
"N#CC(=Cc1ccc(O)c(O)c1)c1ccc(Cl)cc1 [Ex. 1, α-cyano-4-chloro-3',4'-dihydroxystilbene]",pIC50,[3]; [6],7.42
same,inhibition at 10 µM,"[4]; 10^-5 (mole concentration), read-out: 12-Lipoxygenase inhibition ratio (%)",97%
same,inhibition at 1 µM,"[4]; 10^-6 (mole concentration), read-out: 12-Lipoxygenase inhibition ratio (%)",97%
same,inhibition at 0.1 µM,"[4]; 10^-7 (mole concentration), read-out: 12-Lipoxygenase inhibition ratio (%)",98%
same,12-Lipoxygenase inhibition ratio (%),[4],73%
same,12-Lipoxygenase inhibition ratio (%),"[4]; listed as Example 1, 0.01 µM",73%
same,inhibition at 0.001 µM,"[4]; 10^-9 (mole concentration), read-out: 12-Lipoxygenase inhibition ratio (%)",1%
same,pIC50,"[4]; Table 2, read-out: 12-Lipoxygenase IC50 values",8.38
same,pIC50,[4]; [7],8.38
same,pIC50,[4]; [8],8.38
